# Assay results: patent EP0356128A2, “3-(Aminopropyl)methyl phosphinic acid as a therapeutic agent” (SMITH KLINE & FRENCH LABORATORIES LIMITED, priority 1988, dated 1990)
# Tests used:
# GABAA receptor = assay: [3H]-GABA radioligand binding assay, GABAA binding (in the presence of baclofen); details: inhibition of specific GABAA binding to rat synaptic membranes; [³H]-GABA 10 nM, baclofen 100 µM; read-out: IC₅₀ (nM) GABAA
# Method: Male rats were killed by decapitation.
# The final tissue was resuspended in fresh buffer for assay and transferred in 0.8 ml aliquots to microtubes (0.5 - 1.0 mg protein.tube).
# GABAB receptor = GABAB receptor (Rattus norvegicus, UniProt Q9Z0U4); assay: biochemical
# Sequence of GABAB receptor (Q9Z0U4 17-960 limits assumed): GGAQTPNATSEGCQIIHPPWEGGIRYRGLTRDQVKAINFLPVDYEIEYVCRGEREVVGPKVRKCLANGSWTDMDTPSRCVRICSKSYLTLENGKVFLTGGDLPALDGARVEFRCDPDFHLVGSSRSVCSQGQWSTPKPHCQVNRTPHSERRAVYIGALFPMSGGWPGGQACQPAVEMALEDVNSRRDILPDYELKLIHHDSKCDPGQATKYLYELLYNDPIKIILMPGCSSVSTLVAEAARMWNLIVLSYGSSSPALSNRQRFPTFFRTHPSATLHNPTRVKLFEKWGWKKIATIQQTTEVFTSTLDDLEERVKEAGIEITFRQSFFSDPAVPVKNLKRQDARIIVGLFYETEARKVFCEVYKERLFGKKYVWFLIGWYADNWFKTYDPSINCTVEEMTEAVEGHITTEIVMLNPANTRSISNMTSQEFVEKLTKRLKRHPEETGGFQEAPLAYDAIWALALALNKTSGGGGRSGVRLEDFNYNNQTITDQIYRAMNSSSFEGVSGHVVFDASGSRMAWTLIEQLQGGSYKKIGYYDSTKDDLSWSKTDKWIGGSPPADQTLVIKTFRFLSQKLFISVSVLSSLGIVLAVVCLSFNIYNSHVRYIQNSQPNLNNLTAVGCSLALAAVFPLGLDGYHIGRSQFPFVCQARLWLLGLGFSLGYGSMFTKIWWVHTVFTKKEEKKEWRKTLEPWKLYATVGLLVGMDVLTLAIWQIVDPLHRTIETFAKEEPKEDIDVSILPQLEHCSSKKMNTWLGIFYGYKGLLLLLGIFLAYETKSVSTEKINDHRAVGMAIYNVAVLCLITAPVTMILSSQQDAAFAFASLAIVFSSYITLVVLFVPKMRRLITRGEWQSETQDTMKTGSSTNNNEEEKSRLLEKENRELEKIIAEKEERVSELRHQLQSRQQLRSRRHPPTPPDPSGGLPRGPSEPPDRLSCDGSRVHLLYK
# Sequence of GABAB receptor (O88871 41-940 partner): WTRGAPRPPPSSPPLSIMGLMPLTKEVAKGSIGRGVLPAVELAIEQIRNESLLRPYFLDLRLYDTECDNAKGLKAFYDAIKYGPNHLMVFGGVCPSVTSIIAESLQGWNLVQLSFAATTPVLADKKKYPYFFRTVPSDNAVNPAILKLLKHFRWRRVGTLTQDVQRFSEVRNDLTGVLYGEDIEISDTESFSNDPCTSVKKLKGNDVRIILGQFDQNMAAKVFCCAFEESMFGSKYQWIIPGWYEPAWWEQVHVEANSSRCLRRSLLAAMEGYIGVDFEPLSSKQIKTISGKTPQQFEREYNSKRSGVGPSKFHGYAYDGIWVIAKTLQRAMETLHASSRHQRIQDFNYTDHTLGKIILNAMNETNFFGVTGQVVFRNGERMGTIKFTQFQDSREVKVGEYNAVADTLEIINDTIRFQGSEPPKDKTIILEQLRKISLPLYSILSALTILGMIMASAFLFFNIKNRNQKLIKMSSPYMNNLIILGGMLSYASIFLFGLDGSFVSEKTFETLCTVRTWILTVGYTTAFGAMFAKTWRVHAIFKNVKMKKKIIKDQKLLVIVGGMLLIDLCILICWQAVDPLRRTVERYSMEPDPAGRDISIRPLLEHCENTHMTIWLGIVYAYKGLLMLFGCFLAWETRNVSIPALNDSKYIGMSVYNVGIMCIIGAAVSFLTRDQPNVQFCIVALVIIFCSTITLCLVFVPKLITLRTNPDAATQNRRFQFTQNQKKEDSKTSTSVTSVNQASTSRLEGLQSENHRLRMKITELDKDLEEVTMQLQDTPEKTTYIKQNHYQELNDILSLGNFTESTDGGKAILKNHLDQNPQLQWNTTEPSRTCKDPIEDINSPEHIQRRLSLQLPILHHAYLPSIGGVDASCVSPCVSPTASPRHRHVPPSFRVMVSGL
# Method: Male rats were killed by decapitation. […] The homogenate was centrifuged at 1000 g to give a crude nuclear pellet (P₁) and a supernatant fraction enriched in myelin, synaptosomes and mitochrondria. The supernatant was collected and recentrifuged for 20 minutes at 20,000 g. The resulting pellet (P₂) was lysed by resuspension in distilled water and the mixture centrifuged for 20 minutes at 8,000 g. The supernatant was used to rinse off the upper layer of the pellet with the aid of a Pasteur pipette. The combined suspension was centrifuged for 20 minutes at 48,000 g. The final crude synaptic membranes were washed twice with distilled water and were either resuspended in buffer for further washing prior to use as fresh tissue or were stored frozen at -20°C. […]
# [³H]-GABA (10 nM final concentrations 65 Ci/mmol) was added to each tube with or without varying concentrations of unlabelled test compound (final volume 1.0 ml). […] GABAB binding was determined by using ³H-GABA in the presence of isoguvacine (40 µM), a GABAA receptor ligand. […]
# Non-specific binding was subtracted from the total amount of radioactivity bound in the absence of any drug to yield the amount of ligand specifically bound. The amount of radioactivity specifically bound at a given concentration of non-radioactive drug was expressed as a percentage of the total ligand specifically bound.
Compound,IC50 (GABAA receptor) [nM],IC50 (GABAB receptor) [nM]
NCCC[PH](=O)O [3-aminopropyl phosphinic acid],420,1
"CP(=O)(O)CCCN [Example 1, 3-(aminopropyl)methyl phosphinic acid]",23000,–
